Assay results reported in publication PMC9573699, “Deactivatable Bisubstrate Inhibitors of Protein Kinases” (Molecules, 2022).
Read-outs that look alike come from different tables or passages of the source. One block for each compound: values may come before it. Non-standard residues stand in square brackets, D forms with d. Residues, ends and D or L forms follow the SMILES beside them. *: point of attachment. X2 = O=C(CCCCCCCC(=O)*)N1CCN(c2ncnc3[nH]ccc23)CC1

How the values were obtained:
PKAcα [1] = settings: cited from earlier work
PKAcα [2] = biological target: T1, PKAcα (Homo sapiens, UniProt P17612)
Excerpt: (§1) In the present work, photoluminescence-based competitive equilibrium binding assay was used to establish the KD and KD^app values of the novel compounds as determined before and after fragmentation, respectively. […] Two assay formats were used, which were designed for the determination of KD values of high-affinity bivalent inhibitors and the mixtures of their low-affinity fragments, respectively.
The first assay was based on the measurement of the time-gated photoluminescence signal intensity (TGLI) and it utilized ARC-Lum(Fluo) probes ARC-1063 or ARC-1182, which both emit long life-time photoluminescence signal when associated with a target PK [38]. ARC-1063 and ARC-1182 differ by the fluorescent label (Figure S7) and the choice between these probes was only based on the availability of the particular probe. […]
The displacement data were fitted to the previously described [40, 42] exact model of competitive binding (further explained in Appendix A) to determine KD and KD^app values, which were used as concentration- and probe-independent quantities to evaluate the deactivation efficiencies of the novel compounds.
The fluorescence intensity (FI), fluorescence anisotropy (FA), and time gated photoluminescence intensity (TGLI) measurements were performed with a PHERAstar (BMG Labtech) microplate reader. […] The TGLI was recorded for 200 µs after 60 µs delay from the flash-excitation. […]

PKAcα [3] = biological target: T1, PKAcα; assay: FA-based competitive binding/displacement assay (probe ARC-583); settings: for influence of TCEP on the displacement curve: FA assay, TCEP 1 mM
Excerpt: as §1
A typical assay setup based on the measurement of FA utilizes concentrations of the fluorescence probes slightly below the concentration of the target protein but higher than the KD^* to achieve maximal Δr. The assay in the present work was conducted at 2 nM ARC-583 and 3 nM PKAcα. […] Thus, the KD values for low-affinity compounds can be reliably established with this FA-based assay format.
The fluorescence intensity (FI), fluorescence anisotropy (FA), and time gated photoluminescence intensity (TGLI) measurements were performed with a PHERAstar (BMG Labtech) microplate reader. The FI and FA measurements of the photoluminescent probe ARC-583 were performed with FP optical module [EX 540(50) nm, EM 590(50) nm]. The detector was adjusted with solution of the free probe ARC-583 (in the absence of PKAcα). […] The TGLI measurements of photoluminescent probes ARC-1182 and ARC-1063 were performed with HTRF optical module (EX 330(50) nm, EM 675(50) nm). The TGLI was recorded for 200 µs after 60 µs delay from the flash-excitation.
Upon arrival, the stock solution of PKAcα was divided into batches and stored at −80 °C. After removal from a freezer at −80 °C, the batches of PKAcα were stored at 0 °C in an ice box until consumed, to avoid repetitive freeze-thaw cycles.
The microplates were incubated for 30 min at 30 °C before measurements. The measurements were repeated after 60 min to verify that the reactions had reached the equilibrium. […] Formation of the complex was observed by the change of FA and the concentration of PKAcα was calculated as previously described [40, 42]. […] First, the solutions were incubated for 30 min at 30 °C, thereafter the FA or TGLI signals were measured. Then, the stock solution of TCEP (1 µL) was added to all wells to the final concentration of 1 mM. The microplates were then incubated for an additional 30 min at 30 °C and the FA or TGLI signals were measured in the presence of TCEP. All experiments were carried out in at least two replicates (n ≥ 2) and the reported errors are the standard errors of the mean.
The anisotropy change (Δr) with respect to the anisotropy of free photoluminescent probe ARC-583 and the TGLI of the photoluminescent probes ARC-1182 and ARC-1063 were plotted as functions of log[I]T, where [I]T corresponds to the total concentration of the ‘dark’ ligand/inhibitor that competes with the probe for the binding to the catalytic subunit of PK ([I]T = [I] + [PK:I], where [I] and [PK:I] correspond to the equilibrium concentrations of unbound I and PK:I complex, respectively).

PKAcα [4] = assay: Estimated dynamic range of enzyme activity change upon deactivation (Equations 2, 3); settings: estimated from change of KD app / IC50 upon deactivation
Excerpt: In general, deactivation of an inhibitor can be observed by a shift of a dose-response curve in a biochemical assay, which is caused by the increase of IC50 value from IC50^ON (the IC50 of the active inhibitor) to IC50^OFF (the IC50 of the deactivated inhibitor). The fraction of the active enzyme before and after applying the trigger depends on the initial concentration of the deactivatable inhibitor. If the sigmoidal dose–response model describes the concentration dependencies of the inhibition before and after applying the stimulus, the biggest change of the fraction of the active enzyme in the solution is observed at the concentration of the inhibitor Iopt whose logarithm is the average of the corresponding logIC50 values (Equation (2)):(2) logIopt=1/2logIC50ON+logIC50OFF
The ratio of fractions of active enzyme after (a^maxopt) and before (a^minopt) deactivation of the inhibitor (i.e., the on/off ratio of the activity of the enzyme) is determined by the square root of the ratio of the corresponding IC50 values (Equation (3)):(3) aoptmax/aoptmin=IC50OFF/IC50ON^1/2
Thus, the larger the difference between IC50^ON and IC50^OFF values is (ΔIC50), the higher the dynamic range of activity change (Δaopt = a^maxopt − a^minopt) of the enzyme is. […]

[5] = HPLC-MS analysis of the fragmentation of ARC-2121 and ARC-2194; format: physicochemical; settings: TCEP 1 mM, pH 7.5, 30 °C
Experimental: At fixed time points (1, 10, 30, 60, and 120 min), 10 µL of the solution (corresponding to 1 nmol of the substrate) was injected into the RP-HPLC column.
ARC-2121 (200 µM) was dissolved in H2O:MeCN (10:1). ARC-2121 (200 µM, 20 µL) was irradiated for a fixed time (15, 30, 60, 90, and 120 s) inside a microtiter plate at room temperature (rt) using the custom-made 365 nm LED array (Figure S2). Then, 9 µL (1.7 nmol) of the solution was injected into the RP-HPLC column.

PKAcα [6] = test system: PKAcα; set-up: method as in PMID 17125267; settings: cited from earlier work

Compound: N=C(N)NCCC[C@@H](NC(=O)CCCCCCCC(=O)N1CCN(c2ncnc3[nH]ccc23)CC1)C(=O)N[C@H](CCCNC(=N)N)C(=O)N[C@H](CCCNC(=N)N)C(=O)N[C@H](CCCNC(=N)N)C(=O)N[C@H](CCCNC(=N)N)C(=O)N[C@H](CCCNC(=N)N)C(=O)N[C@H](CCCCN)C(N)=O [ARC-1411] (X2-[dR][dR][dR][dR][dR][dR][dK]-NH2)
Kd (PKAcα [1]; previously measured affinity): 0.003 nM | Kd (PKAcα [2]): 0.003 ± 0.001 nM | influence of TCEP on the displacement curve (PKAcα [3]): not influenced

Compound: N=C(N)NCCC[C@@H](NC(=O)[C@@H](CCCNC(=N)N)NC(=O)[C@@H](CCCNC(=N)N)NC(=O)[C@@H](CCCNC(=N)N)NC(=O)[C@@H](CCCNC(=N)N)NC(=O)[C@@H](CCCNC(=N)N)NC(=O)OCCSSCCOC(=O)N1CCN(c2ncnc3[nH]ccc23)CC1)C(N)=O [ARC-2194]
Δaopt (dynamic range of activity change of the enzyme) (PKAcα [4]): 98% | time to quantitative conversion of parent compound to 1a ([5]; 100 µM): less than 1 min

fraction converted to 2a ([5]; after 2 h): more than 50%
Compound: O=C(OCCS)N1CCN(c2ncnc3[nH]ccc23)CC1 [Compound 1a]

Compound: c1nc(N2CCNCC2)c2cc[nH]c2n1 [Compound 2a, 4-(piperazin-1-yl)-7H-pyrrolo [2,3-d]pyrimidine]
Kd (PKAcα [3]): 550 ± 150 nM | influence of TCEP on the displacement curve (PKAcα [3]): not influenced

Kd (PKAcα [3]): 460 ± 210 nM
Compound: NC(=O)CCCCCCCC(=O)N1CCN(c2ncnc3[nH]ccc23)CC1 [Compound 11a, 7DP-Pip-Nda-amide]

influence of TCEP on the displacement curve (PKAcα [3]): not influenced
Compound: O=S(=O)(NCCNC/C=C/c1ccc(Br)cc1)c1cccc2cnccc12 [Compound H-89]
Kd (PKAcα [1]; H-89:PKAcα complex): 9 nM

Compound: hexa-D-arginine
inhibitory potency (PKAcα [6]): millimolar
